Laboratory results as given in patent publication US20100239670A1, “Topical Composition Method for Treating Urinary Stress Incontinence” (Plethora Solutions Ltd., priority 2000, published 2010).

What was measured:
[1] = tested on: female patients with documented history of stress incontinence; test: Urethral pressure after topical gel, double-blind randomised 2-way cross-over study; type: in vivo; settings: single topical dose, gel 0.5 ml, 20% w/w, applied to peri-urethral area; up to 5 hours post dosing; in contrast to placebo; two typical patients (FIGS. 1 and 2)
Description: (§1) The invention has been evaluated in a double-blind, randomised, 2-way cross-over study in female patients with documented history of stress incontinence. Each patient was exposed to both placebo and active drug over the course of the study.
(§2) Each patient received either a single dose of topical phenylephrine gel (20% w/w in a volume of 0.5 ml) or placebo according to the randomisation schedule. The gel was applied to the peri-urethral area; in, onto or around the area of the vagina and/or vaginal mucosa, in close proximity to the urethra. For up to 5 hours post dosing, urethral pressure was measured using the standard Lectromed/Galetec MPR/2 ambulatory measurement system. Supine and standing blood pressure and pulse rate was likewise measured using standard methodology via a Dinamap semi-automatic sphygmomanometer.

[2] = tested on: female patients with documented history of stress incontinence; test: Supine and standing blood pressure and pulse rate in the same cross-over study; type: in vivo; settings: single topical dose, gel 0.5 ml, 20% w/w; up to 5 hours post dosing
Description: as §1, §2

[3] = literature, cited from earlier work

## CNC[C@H](O)c1cccc(O)c1 [phenylephrine]
[1]
  intra-urethral pressure: marked and sustained increases
[2]
  diastolic or systolic blood pressure: no clinically significant changes
  pulse rate: no clinically significant changes
[3]; not topical
  blood pressure: substantial elevations
[3]
  duration of action: short
[3]; oral
  oral bioavailability: low
